Results published in patent US20250179066A1, “ZWITTERIONIC ANTIBACTERIAL COMPOUNDS” (Hoffmann-La Roche Inc., priority 2022, published 2025).
Where a name gives a salt, the structure may show the parent alone.

tested on: Acinetobacter baumannii ATCC17961; test: Antimicrobial susceptibility testing: 90% growth inhibitory concentration (IC90) determination; type: cell-based; conditions: Acinetobacter baumannii, ATCC17961, 16 h, 90% growth inhibitory concentration against Acinetobacter baumannii ATCC17961, Iso-Sensitest broth, OD 600 nm over 16 h; read-out: ATCC 17961 IC90
In short: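 Twofold serial dilutions (e.g. 10 to 0.0195 μM final) in Iso-Sensitest broth inoculated at ~5×10^5 CFU/mL, incubated at 35±2° C. OD600 read every minute for 16 h; IC90 is the concentration inhibiting 90% of growth during logarithmic phase.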

IC90 [µM]	Compound
1.1	C[C@H]1CN(C(=O)c2ccc(NC(=O)c3ncc(-c4cn(-c5ccc(N)cn5)nc4C(F)(F)F)n3C)cc2Cl)CCN1C(=O)C1CC[N+](CC(=O)O)(CC2CNC2)CC1 (stereo partly drawn) [Example 77, 2-[4-[(2S)-4-[4-[[5-[1-(5-amino-2-pyridyl)-3-(trifluoromethyl)pyrazol-4-yl]-1-methyl-imidazole-2-carbonyl]amino]-2-chloro-benzoyl]-2-methyl-piperazine-1-carbonyl]-1-(azetidin-3-ylmethyl)piperidin-1-ium-1-yl]acetic acid. 1:1 formate]
1.11	CC[C@@H]1CN(C(=O)C2CC[N+](CC(=O)O)(CC3CNC3)CC2)CCN1C(=O)c1ccc(NC(=O)c2ncc(-c3cn(-c4ccc(N)cn4)nc3C(F)(F)F)n2C)cc1Cl (stereo partly drawn) [Example 78, 2-[4-[(3R)-4-[4-[[5-[1-(5-amino-2-pyridyl)-3-(trifluoromethyl)pyrazol-4-yl]-1-methyl-imidazole-2-carbonyl]amino]-2-chloro-benzoyl]-3-ethyl-piperazine-1-carbonyl]-1-(azetidin-3-ylmethyl)piperidin-1-ium-1-yl]acetic acid. 1:1 formate]
1.12	C[C@H]1CN(C(=O)C2CC[N+](CC(=O)O)(CC3CNC3)CC2)CCN1C(=O)c1ccc(NC(=O)c2ncc(-c3cn(-c4ccc(N)cn4)nc3C(F)(F)F)n2C)cc1Cl (stereo partly drawn) [Example 79, 2-[4-[(3S)-4-[4-[[5-[1-(5-amino-2-pyridyl)-3-(trifluoromethyl)pyrazol-4-yl]-1-methyl-imidazole-2-carbonyl]amino]-2-chloro-benzoyl]-3-methyl-piperazine-1-carbonyl]-1-(azetidin-3-ylmethyl)piperidin-1-ium-1-yl]acetic acid. 1:1 formate]
1.2	Cn1c(-c2cn(-c3nc4ccccc4s3)nc2C(F)(F)F)cnc1C(=O)Nc1ccc(C(=O)N2CCN(C(=O)C3CC[N+](CC(=O)O)(CC4CNC4)CC3)CC2)c(Cl)c1 (stereo not drawn) [Example 80, 2-[1-(azetidin-3-ylmethyl)-4-[4-[4-[[5-[1-(1,3-benzothiazol-2-yl)-3-(trifluoromethyl)pyrazol-4-yl]-1-methyl-imidazole-2-carbonyl]amino]-2-chloro-benzoyl]piperazine-1-carbonyl]piperidin-1-ium-1-yl]acetic acid. 1:1 formate]
1.21	Cn1c(-c2cn(-c3ccc(N)cn3)nc2C(F)(F)F)cnc1C(=O)Nc1ccc(C(=O)N2CCN(C(=O)[C@@H](N)CCCCNCC(=O)O)CC2)c(Cl)c1 [Example 81, 2-[[(5S)-amino-6-[4-[4-[[5-[1-(5-amino-2-pyridyl)-3-(trifluoromethyl)pyrazol-4-yl]-1-methyl-imidazole-2-carbonyl]amino]-2-chloro-benzoyl]piperazino]-6-keto-hexyl]amino]acetic acid. 1:1 2,2,2-trifluoroacetic acid]
1.22	COc1ccc(-n2cc(-c3cnc(C(=O)Nc4ccc(C(=O)N5CCN(C(=O)C6CC[N+](CC(=O)O)(CC7CNC7)CC6)CC5)c(Cl)c4)n3C)c(C(F)(F)F)n2)cn1 (stereo not drawn) [Example 82, 2-[1-(azetidin-3-ylmethyl)-4-[4-[2-chloro-4-[[5-[1-(6-methoxy-3-pyridyl)-3-(trifluoromethyl)pyrazol-4-yl]-1-methyl-imidazole-2-carbonyl]amino]benzoyl]piperazine-1-carbonyl]piperidin-1-ium-1-yl]acetic acid. 1:1 2,2,2-trifluoroacetate]
1.24	Cn1c(-c2cn(-c3ccc(N)cn3)nc2C(F)(F)F)cnc1C(=O)Nc1ccc(C(=O)N2CCN(C(=O)C[C@H](N)C(=O)O)CC2)c(Cl)c1 [Example 83, (2S)-2-amino-4-[4-[4-[[5-[1-(5-amino-2-pyridyl)-3-(trifluoromethyl)pyrazol-4-yl]-1-methyl-imidazole-2-carbonyl]amino]-2-chloro-benzoyl]piperazino]-4-keto-butyric acid. 1:1 2,2,2-trifluoroacetic acid]
1.28	CN(C)Cc1ccc(-n2cc(-c3cnc(C(=O)Nc4ccc(C(=O)N5CCN(C(=O)C6CC[N+](CC(=O)O)(CC7CNC7)CC6)CC5)c(Cl)c4)n3C)c(C(F)(F)F)n2)nc1 (stereo not drawn) [Example 84, 2-[1-(azetidin-3-ylmethyl)-4-[4-[2-chloro-4-[[5-[1-[5-[(dimethylamino)methyl]-2-pyridyl]-3-(trifluoromethyl)pyrazol-4-yl]-1-methyl-imidazole-2-carbonyl]amino]benzoyl]piperazine-1-carbonyl]piperidin-1-ium-1-yl]acetic acid. 1:1 formic acid. 1:1 formate]
1.36	Cn1c(-c2cn(-c3ccc(N)cn3)nc2C(F)(F)F)cnc1C(=O)Nc1ccc(C(=O)N2CCN(C(=O)[C@H](N)CC(=O)O)CC2)c(Cl)c1 [Example 85, (3R)-3-amino-4-[4-[4-[[5-[1-(5-amino-2-pyridyl)-3-(trifluoromethyl)pyrazol-4-yl]-1-methyl-imidazole-2-carbonyl]amino]-2-chloro-benzoyl]piperazino]-4-keto-butyric acid. 1:1 2,2,2-trifluoroacetic acid]
1.37	Cn1c(-c2cn(-c3ccc(N)cn3)nc2C(F)(F)F)cnc1C(=O)Nc1ccc(C(=O)N2CCN(C(=O)C3CC[N+](CC(=O)O)(CC4CNC4)CC3)C3(CC3)C2)c(Cl)c1 (stereo not drawn) [Example 86, 2-[4-[7-[4-[[5-[1-(5-amino-2-pyridyl)-3-(trifluoromethyl)pyrazol-4-yl]-1-methyl-imidazole-2-carbonyl]amino]-2-chloro-benzoyl]-4,7-diazaspiro[2.5]octane-4-carbonyl]-1-(azetidin-3-ylmethyl)piperidin-1-ium-1-yl]acetic acid. 1:1 formate]
1.41	Cn1c(-c2cn(-c3ccc(N)cn3)nc2C(F)(F)F)cnc1C(=O)Nc1ccc(C(=O)N2CCC(C(=O)N3CC[N+](CC(=O)O)(CC4CNC4)CC3)CC2)c(Cl)c1 [Example 87, 2-[4-[1-[4-[[5-[1-(5-amino-2-pyridyl)-3-(trifluoromethyl)pyrazol-4-yl]-1-methyl-imidazole-2-carbonyl]amino]-2-chloro-benzoyl]piperidine-4-carbonyl]-1-(azetidin-3-ylmethyl)piperazin-1-ium-1-yl]acetic acid. 1:1 2,2,2-trifluoroacetate]
1.41	CNc1cc(-n2cc(-c3cnc(C(=O)Nc4ccc(C(=O)N5CCN(C(=O)C6CC[N+](CC(=O)O)(CC7CNC7)CC6)CC5)c(Cl)c4)n3C)c(C(F)(F)F)n2)ccn1 (stereo not drawn) [Example 88, 2-[1-(azetidin-3-ylmethyl)-4-[4-[2-chloro-4-[[1-methyl-5-[1-[2-(methylamino)-4-pyridyl]-3-(trifluoromethyl)pyrazol-4-yl]imidazole-2-carbonyl]amino]benzoyl]piperazine-1-carbonyl]piperidin-1-ium-1-yl]acetic acid. 1:1 2,2,2-trifluoroacetate]
1.52	Cn1c(-c2cn(-c3ccc(N)cn3)nc2C(F)(F)F)cnc1C(=O)Nc1ccc(C(=O)N2CCN(C(=O)CC[C@H](N)C(=O)O)CC2)c(Cl)c1 [Example 90, (2S)-2-amino-5-[4-[4-[[5-[1-(5-amino-2-pyridyl)-3-(trifluoromethyl)pyrazol-4-yl]-1-methyl-imidazole-2-carbonyl]amino]-2-chloro-benzoyl]piperazino]-5-keto-valeric acid. 1:1 2,2,2-trifluoroacetic acid]
1.53	Cn1c(-c2cn(-c3ccc(N)cn3)nc2C(F)(F)F)cnc1C(=O)Nc1ccc(C(=O)N2CCN(C(=O)[C@@H](N)CC(=O)O)CC2)c(Cl)c1 [Example 91, (3S)-3-amino-4-[4-[4-[[5-[1-(5-amino-2-pyridyl)-3-(trifluoromethyl)pyrazol-4-yl]-1-methyl-imidazole-2-carbonyl]amino]-2-chloro-benzoyl]piperazino]-4-keto-butyric acid. 1:1 2,2,2-trifluoroacetic acid]
1.62	Cn1c(-c2cn(-c3ccc(N)cn3)nc2C(F)(F)F)cnc1C(=O)Nc1ccc(C(=O)N2CC3CC4(C(=O)C5CC[N+](CC(=O)O)(CC6CNC6)CC5)CC(C2)N34)c(Cl)c1 (stereo not drawn) [Example 92, 2-[4-[3-[4-[[5-[1-(5-amino-2-pyridyl)-3-(trifluoromethyl)pyrazol-4-yl]-1-methyl-imidazole-2-carbonyl]amino]-2-chloro-benzoyl]-3,9-diazabicyclo[3.3.1]nonane-9-carbonyl]-1-(azetidin-3-ylmethyl)piperidin-1-ium-1-yl]acetic acid. 1:1 formate]
1.66	Cn1c(-c2cn(-c3ccc(N)cn3)nc2C(F)(F)F)cnc1C(=O)Nc1ccc(C(=O)N2CCN(C(=O)C3CC[N+](CC(=O)O)(CC4CNC4)CC3)CC23CC3)c(Cl)c1 (stereo not drawn) [Example 93, 2-[4-[4-[4-[[5-[1-(5-amino-2-pyridyl)-3-(trifluoromethyl)pyrazol-4-yl]-1-methyl-imidazole-2-carbonyl]amino]-2-chloro-benzoyl]-4,7-diazaspiro[2.5]octane-7-carbonyl]-1-(azetidin-3-ylmethyl)piperidin-1-ium-1-yl]acetic acid. 1:1 formate]
1.73	Cn1c(-c2cn(-c3sncc3N)nc2C(F)(F)F)cnc1C(=O)Nc1ccc(C(=O)N2CCN(C(=O)C3CC[N+](CC(=O)O)(CC4CNC4)CC3)CC2)c(Cl)c1 (stereo not drawn) [Example 94, 2-[4-[4-[4-[[5-[1-(4-Aminoisothiazol-5-yl)-3-(trifluoromethyl)pyrazol-4-yl]-1-methyl-imidazole-2-carbonyl]amino]-2-chloro-benzoyl]piperazine-1-carbonyl]-1-(azetidin-3-ylmethyl)piperidin-1-ium-1-yl]acetic Acid.1:1 formate]

Compound	IC90 [µM]
Cn1c(-c2cn(-c3ccc(N)cn3)nc2C(F)(F)F)cnc1C(=O)Nc1ccc(C(=O)N2C3CCC2CN(C(=O)C2CC[N+](CC(=O)O)(CC4CNC4)CC2)C3)c(Cl)c1 (stereo not drawn) [Example 89, 2-[4-[8-[4-[[5-[1-(5-amino-2-pyridyl)-3-(trifluoromethyl)pyrazol-4-yl]-1-methyl-imidazole-2-carbonyl]amino]-2-chloro-benzoyl]-3,8-diazabicyclo[3.2.1]octane-3-carbonyl]-1-(azetidin-3-ylmethyl)piperidin-1-ium-1-yl]acetic acid. 1:1 formate]	1.49
